Results published in patent publication US9689017B2, “Method of semi-solid state fermentation for producing surfactin from a mutant strain of Bacillus subtilis subsp” (priority 2014, dated 2017).
In brackets after ≈: the same amount, converted by molar mass. Like-named read-outs stand apart in the source and are kept apart here. Starred links: 1 amine or outer side, 2 acyl side, 3 side chain; linkers in the order of their positions; H or OH if unused. Positions of bridges follow the written chain, without caps; N, C: chain ends. Non-standard residues stand in square brackets, D forms with d. Residues, ends and D or L forms follow the SMILES beside them. X1 = CC(C)CCCCCCCCC[C@H](CC(=O)[*:1])O[*:2]

Tests used:
[1] = tested on: Aeromonas hydrophila; experiment: Antimicrobial test for surfactin (MIC, 96-well broth dilution); assay type: cell-based; settings: 16 hrs at 37° C., read-out: minimum inhibitory concentration (MIC)
Procedure: (§1) Escherichia coli DH5α, Vibrio harveyi, Vibrio alginolyticus, Vibrio anguillarum, Vibrio salmonicida, Aeromonas hydrophila and Staphylococcus epidermidis are separately inoculate onto LBA (E. coli DH5α) or TSA (+1.5% NaCl) and incubate at 37° C. for 16 hrs. Scrap off and dissolve the colonies in designated medium. When OD540 is at 1 (the concentration is around 1×10^9 colonies/c.c.), take 500 μl of the bacterial culture and add to 500 μl of LB or TSB (+1.5% NaCl) to make the bacterial concentration at […]; add 130 μl of the bacterial culture to each well of a 96-well plate, the concentration of bacterial culture is 1×10^4.5 colonies/c.c., before addition of 20 μl of chemically synthesized antimicrobial peptides at various concentrations. After 16 hrs of incubation at 37° C., the bacterial culture that is clear indicates the lowest concentration of the antimicrobial peptide, that is, minimum inhibitory concentration (MIC).

[2] = tested on: Escherichia coli DH5α; experiment: as above; assay type: cell-based; settings: 16 h, E. coli, 16 hrs at 37° C., read-out: minimum inhibitory concentration (MIC)
Procedure: as §1

[3] = tested on: Staphylococcus epidermidis; experiment: as above; assay type: cell-based; settings: 16 hrs at 37° C., read-out: minimum inhibitory concentration (MIC)
Procedure: as §1

[4] = tested on: Vibrio alginolyticus; experiment: as above; assay type: cell-based; settings: 16 hrs at 37° C., read-out: minimum inhibitory concentration (MIC)
Procedure: as §1

[5] = tested on: Vibrio anguillarum; experiment: as above; assay type: cell-based; settings: 16 hrs at 37° C., read-out: minimum inhibitory concentration (MIC)
Procedure: as §1

[6] = tested on: Vibrio harveyi; experiment: as above; assay type: cell-based; settings: 16 hrs at 37° C., read-out: minimum inhibitory concentration (MIC)
Procedure: as §1

[7] = tested on: Vibrio salmonicida; experiment: as above; assay type: cell-based; settings: 16 hrs at 37° C., read-out: minimum inhibitory concentration (MIC)
Procedure: as §1

[8] = Antimicrobial test for surfactin, summary statement over the tested bacteria; assay type: cell-based; settings: text summary of Table 2, all tested bacteria; read-out: minimum inhibitory concentration (MIC)
Procedure: as §1

[9] = literature value, test organism not given; cited from earlier work

Molecule `CC(C)CCCCCCCCC[C@@H]1CC(=O)N[C@@H](CCC(=O)O)C(=O)N[C@@H](CC(C)C)C(=O)N[C@H](CC(C)C)C(=O)N[C@@H](C(C)C)C(=O)N[C@@H](CC(=O)O)C(=O)N[C@H](CC(C)C)C(=O)N[C@@H](CC(C)C)C(=O)O1` [Bacillus subtilis subsp. ATCC21332, surfactin] (EL[dL]VD[dL]L; linker N-C via X1) has an MIC ([1]; Aeromonas hydrophila, 16 h) of 129 µM (≈ 133 µg/mL), an MIC [2] of 193 µM (≈ 200 µg/mL) and an MIC ([3]; 16 h) of 129 µM (≈ 133 µg/mL). The MIC ([4]; 16 h) was 129 µM (≈ 133 µg/mL), the MIC ([5]; Vibrio anguillarum, 16 h) was 129 µM (≈ 133 µg/mL) and the MIC ([6]; 16 h) was 129 µM (≈ 133 µg/mL). It also gave an MIC ([7]; Aliivibrio salmonicida, 16 h) of 129 µM (≈ 133 µg/mL).

`CC(C)CCCCCCCCC[C@@H]1CC(=O)N[C@@H](CCC(=O)O)C(=O)N[C@@H](CC(C)C)C(=O)N[C@H](CC(C)C)C(=O)N[C@@H](C(C)C)C(=O)N[C@@H](CC(=O)O)C(=O)N[C@H](CC(C)C)C(=O)N[C@@H](CC(C)C)C(=O)O1` [High-yield mutant strain, surfactin] (EL[dL]VD[dL]L; linker N-C via X1) showed an MIC [1] of 96.5 µM (≈ 100 µg/mL), an MIC [3] of 96.5 µM (≈ 100 µg/mL) and an MIC [4] of 96.5 µM (≈ 100 µg/mL). It also gave an MIC [5] of 96.5 µM (≈ 100 µg/mL), an MIC [6] of 96.5 µM (≈ 100 µg/mL) and an MIC [7] of 96.5 µM (≈ 100 µg/mL). For the same molecule, the MIC [8] was 96.5 µM (≈ 100 µg/mL).

For `CC(C)CCCCCCCCC[C@@H]1CC(=O)N[C@@H](CCC(=O)O)C(=O)N[C@@H](CC(C)C)C(=O)N[C@H](CC(C)C)C(=O)N[C@@H](C(C)C)C(=O)N[C@@H](CC(=O)O)C(=O)N[C@H](CC(C)C)C(=O)N[C@@H](CC(C)C)C(=O)O1` [surfactin] (EL[dL]VD[dL]L; linker N-C via X1), the “minimum inhibitory concentration (MIC)” value [9] is given as 50 µg/mL (≈ 48.2 µM).
